Literature values, collected in PMC2840068 (Vision research, 2009).

B1: ranibizumab: anti-VEGF antibody (ranibizumab) (antibody, chains of the INN, looked up, V domains shown)
VH: EVQLVESGGGLVQPGGSLRLSCAASGYDFTHYGMNWVRQAPGKGLEWVGWINTYTGEPTYAADFKRRFTFSLDTSKSTAYLQMNSLRAEDTAVYYCAKYPYYYGTSHWYFDVWGQGTLVTVSS
VL: DIQLTQSPSSLSASVGDRVTITCSASQDISNYLNWYQQKPGKAPKVLIYFTSSLHSGVPSRFSGSGSGTDFTLTISSLQPEDFATYYCQQYSTVPWTFGQGTKVEIK

Experiments:
[1] = tested on: VEGF; conditions: clinical trials in AMD patients; ref Gragoudas et al., 2004
[2] = tested on: VEGF; conditions: ref Chang et al., 2007, Rosenfeld et al., 2006

Molecule	therapeutic dose response [1]	AMD patients’ vision [2]
pegaptanib	inverse therapeutic dose response	
B1		improvement of AMD patients’ vision
